Source: patent US20250154202A1, “CYCLIC EPITOPE TAGS” (BIONTECH SE, priority 2022, published 2025)
Bridge positions count the residues as written; N and C are the ends. Peptide text beside a SMILES is read from it.

Assays:
anti-ALFA VHH = experiment: binding affinity to the anti-ALFA VHH (log(agonist) vs. response, variable slope); conditions: for LogEC50: best-fit values, log(agonist) vs. response, variable slope; for EC50: binding to anti-ALFA VHH
[1] = Plasma stability, human plasma; conditions: for remaining at 24 h, 10 µM / remaining at 2 h, 10 µM / remaining at 6 h, 10 µM / half-life: human; for remaining at 24 h, 10 µM: Li-heparin plasma; for remaining at 2 h, 10 µM / remaining at 6 h, 10 µM: human Li-heparin plasma; for half-life: plasma
Experimental: (§1) Plasma stability measurements were performed by spiking 5 μl of a 1 mM compound stock solution in DMSO into 495 μl of human or mouse Li-heparin plasma (Innovative Research, Cat. No, IPLALIH5OML (human) and IMS-BC-N (Balb C mouse). The spiked plasma was distributed in 50 μl aliquots into capped PCR tubes for incubation at 37° C. At each time point (0, 2, 6, 24 hours*) 3*aliquots were withdrawn from the incubator. Enzymatic reactions were quenched directly after withdrawal by adding 100 μl of acetonitrile/formic acid=99/1 (v/v). Quenched samples were stored at ambient temperature until the end of the incubation period (24 hrs*). After centrifugation, the supernatant was transferred into fresh vials and analyzed by LC-MS/MS in ESI positive mode (Waters ACQUITY UPLC I-Class System (SM-FTN) with Xevo TQD triple quadrupole mass spectrometer with control software Waters MassLynx). […] Values below the limit of quantification (0.1 μM) and outliers of triplicate results were excluded from further calculations. An exponential regression curve was fitted onto the concentration results. Half-life times were calculated from the slope of the regression curve (t1/2=ln(2)/slope).
(§2) For some samples, as indicated below, the incubation time was 6 hours. The 24 hour data was measured in triplicates whereas the 6 hour data was measured in duplicates.

NbALFA = experiment: SPR measurements of NbALFA binding (Biacore T200, multi cycle kinetics, 1:1 binding model); conditions: for Kd / ka / kd: 25° C., HBS-EP+ buffer, biotinylated NbALFA captured
Procedure, shortened: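 NbALFA captured via biotin on CAPture chip flow cell 2, streptavidin quenched with biocytin; multi-cycle kinetics at 25° C in HBS-EP+, surface regenerated between cycles. Responses double-referenced (FC2−FC1, minus 0 nM blank) and fitted to a 1:1 binding model.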

[2] = Plasma stability, mouse plasma; conditions: for remaining at 2 h, 10 µM / remaining at 6 h, 10 µM / remaining at 24 h, 10 µM: Balb C, Li-heparin plasma; for remaining at 2 h, 10 µM / remaining at 6 h, 10 µM / remaining at 24 h, 10 µM / half-life: mouse; for half-life: plasma
Experimental: as §1, §2

[3] = human plasma, 37° C., timepoint 0 h
[4] = human plasma, 37° C., timepoint 0 h, calibration range 0.1 to 10 μM
[5] = human plasma, 37° C., timepoint 2 h
[6] = human plasma, 37° C., timepoint 6 h
[7] = human plasma, 37° C., timepoint 24 h
[8] = Flag (half-life, assay exceeded), human plasma, 37° C.
[9] = Half-life time, human plasma, 37° C., incubation 24 h (triplicates) or 6 h (duplicates)
[10] = mouse plasma, 37° C., timepoint 0 h
[11] = mouse plasma, 37° C., timepoint 0 h, calibration range 0.1 to 10 μM
[12] = mouse plasma, 37° C., timepoint 2 h
[13] = mouse plasma, 37° C., timepoint 6 h
[14] = mouse plasma, 37° C., timepoint 24 h
[15] = Half-life time, mouse plasma, 37° C., incubation 24 h (triplicates) or 6 h (duplicates)

CC(=O)N[C@@H](CO)C(=O)N[C@@H](CCCNC(=N)N)C(=O)N[C@@H](CC(C)C)C(=O)N[C@@H](CCC(=O)O)C(=O)N[C@@H](CCC(=O)O)C(=O)N[C@@H](CCC(=O)O)C(=O)N[C@@H](CC(C)C)C(=O)N[C@@H](CCCNC(=N)N)C(=O)N[C@H]1CCCCNC(=O)CC[C@@H](C(N)=O)NC(=O)[C@H]([C@@H](C)O)NC(=O)[C@H](CC(C)C)NC(=O)[C@H](CCCNC(=N)N)NC1=O [SD15193, Ac-Ser-Arg-Leu-Glu-Glu-Glu-Leu-Arg-(cyclo9)Lys-Arg-Leu-Thr-(cyclo13)Glu-NH2] (Ac-SRLEEELRKRLTE-NH2; lactam 9-13)
LogEC50 (anti-ALFA VHH): 0.7818 | EC50 (anti-ALFA VHH): 6.05 nM | Conc. (% of T0) [1, 3]: 100.0 % of T0 | Mean (compound concentration) [1, 3]: 2.81 | Tube 2 (compound concentration) [1, 3]: 2.845 | Tube 3 (compound concentration) [1, 3]: 2.795 | Tube 1 (compound concentration) [1, 4]: 2.799 | Mean (compound concentration) [1, 5]: 2.71 | Tube 1 (compound concentration) [1, 5]: 2.769 | Tube 2 (compound concentration) [1, 5]: 2.647 | Tube 3 (compound concentration) [1, 5]: 2.717 | Mean (compound concentration) [1, 6]: 2.66 | Tube 1 (compound concentration) [1, 6]: 2.774 | Tube 2 (compound concentration) [1, 6]: 2.678 | Tube 3 (compound concentration) [1, 6]: 2.527 | Mean (compound concentration) [1, 7]: 2.09 | Tube 1 (compound concentration) [1, 7]: 2.387 | Tube 2 (compound concentration) [1, 7]: 1.983 | Tube 3 (compound concentration) [1, 7]: 1.888 | remaining at 24 h, 10 µM [1]: 74.2% | remaining at 2 h, 10 µM [1]: 96.4% | remaining at 6 h, 10 µM [1]: 94.5% | half-life [1, 8]: > 24 h | half-life [1, 9]: 56.1 h | Kd (NbALFA): 0.0556 nM | ka (NbALFA): 1.95e+07 M⁻¹ s⁻¹ | kd (NbALFA): 0.00109 s⁻¹ | remaining at 2 h, 10 µM [2]: 87.5% | remaining at 6 h, 10 µM [2]: 72.7% | remaining at 24 h, 10 µM [2]: 39.4% | Conc. (% of T0) [2, 10]: 100.0 % of T0 | Mean (compound concentration) [2, 10]: 3.29 | Tube 2 (compound concentration) [2, 10]: 3.236 | Tube 3 (compound concentration) [2, 10]: 3.311 | Tube 1 (compound concentration) [2, 11]: 3.315 | Mean (compound concentration) [2, 12]: 2.88 | Tube 1 (compound concentration) [2, 12]: 2.864 | Tube 2 (compound concentration) [2, 12]: 2.972 | Tube 3 (compound concentration) [2, 12]: 2.789 | Mean (compound concentration) [2, 13]: 2.39 | Tube 1 (compound concentration) [2, 13]: 2.383 | Tube 2 (compound concentration) [2, 13]: 2.443 | Tube 3 (compound concentration) [2, 13]: 2.346 | Mean (compound concentration) [2, 14]: 1.30 | Tube 1 (compound concentration) [2, 14]: 1.253 | Tube 2 (compound concentration) [2, 14]: 1.397 | Tube 3 (compound concentration) [2, 14]: 1.236 | half-life [2, 15]: 18.5 h

CC(=O)N[C@@H](CO)C(=O)N[C@@H](CCCNC(=N)N)C(=O)N[C@@H](CC(C)C)C(=O)N[C@@H](CCC(=O)O)C(=O)N[C@H]1CCC(=O)NCCCC[C@@H](C(=O)N[C@@H](CCCNC(=N)N)C(=O)N[C@@H](CC(C)C)C(=O)N[C@H](C(=O)N[C@@H](CCC(=O)O)C(N)=O)[C@@H](C)O)NC(=O)[C@H](CCCNC(=N)N)NC(=O)[C@H](CC(C)C)NC(=O)[C@H](CCC(=O)O)NC1=O [SD15194, Ac-Ser-Arg-Leu-Glu-(cyclo5)Glu-Glu-Leu-Arg-(cyclo9)Lys-Arg-Leu-Thr-Glu-NH2] (Ac-SRLEEELRKRLTE-NH2; lactam 5-9)
LogEC50 (anti-ALFA VHH): 0.7763 | EC50 (anti-ALFA VHH): 5.97 nM | EC50 (anti-ALFA VHH; listed as Ac_5E-9Cyclo_ALFA): 6 nM | Half-life time ([1]; human plasma, 37° C., incubation 24 h (triplicates) or 6 h (duplicates), listed as SD 00015194): 33.48 h | Conc. (% of T0) [1, 3]: 100.0 % of T0 | Mean (compound concentration) [1, 3]: 2.26 | Tube 2 (compound concentration) [1, 3]: 2.271 | Tube 3 (compound concentration) [1, 3]: 2.302 | Tube 1 (compound concentration) [1, 4]: 2.215 | Mean (compound concentration) [1, 5]: 2.09 | Tube 1 (compound concentration) [1, 5]: 2.086 | Tube 2 (compound concentration) [1, 5]: 2.052 | Tube 3 (compound concentration) [1, 5]: 2.117 | Mean (compound concentration) [1, 6]: 1.99 | Tube 1 (compound concentration) [1, 6]: 1.884 | Tube 2 (compound concentration) [1, 6]: 2.057 | Tube 3 (compound concentration) [1, 6]: 2.041 | Mean (compound concentration) [1, 7]: 1.36 | Tube 1 (compound concentration) [1, 7]: 1.322 | Tube 2 (compound concentration) [1, 7]: 1.377 | Tube 3 (compound concentration) [1, 7]: 1.368 | remaining at 24 h, 10 µM [1]: 59.9% | remaining at 2 h, 10 µM [1]: 92.1% | remaining at 6 h, 10 µM [1]: 88.1% | half-life [1, 8]: > 24 h | half-life [1, 9]: > 24 h | Kd (NbALFA): 0.0376 nM | ka (NbALFA): 1.78e+07 M⁻¹ s⁻¹ | kd (NbALFA): 0.00067 s⁻¹ | binding with respect to NbALFA (NbALFA; in words): very good binding | remaining at 2 h, 10 µM [2]: 95.5% | remaining at 6 h, 10 µM [2]: 85.4% | remaining at 24 h, 10 µM [2]: 62.3% | Half-life time ([2]; mouse plasma, 37° C., incubation 24 h (triplicates) or 6 h (duplicates), listed as SD 00015194): 35.69 h | Conc. (% of T0) [2, 10]: 100.0 % of T0 | Mean (compound concentration) [2, 10]: 2.57 | Tube 2 (compound concentration) [2, 10]: 2.488 | Tube 3 (compound concentration) [2, 10]: 2.617 | Tube 1 (compound concentration) [2, 11]: 2.606 | Mean (compound concentration) [2, 12]: 2.46 | Tube 1 (compound concentration) [2, 12]: 2.526 | Tube 2 (compound concentration) [2, 12]: 2.467 | Tube 3 (compound concentration) [2, 12]: 2.373 | Mean (compound concentration) [2, 13]: 2.20 | Tube 1 (compound concentration) [2, 13]: 2.178 | Tube 2 (compound concentration) [2, 13]: 2.256 | Tube 3 (compound concentration) [2, 13]: 2.154 | Mean (compound concentration) [2, 14]: 1.60 | Tube 1 (compound concentration) [2, 14]: 1.543 | Tube 2 (compound concentration) [2, 14]: 1.638 | Tube 3 (compound concentration) [2, 14]: 1.62 | half-life ([2]; Flag (half-life, assay exceeded), mouse plasma, 37° C.): > 24 h | half-life [2, 15]: > 24 h
